Measured values: patent publication US20240081328A1, “Use of 4-Nitro-3-(Trifluoromethyl)Phenol in Killing or Controlling Pomacea Canaliculata, Method for Killing or Controlling Pomacea Canaliculata, and Molluscicide” (priority 2021, published 2024)
Like-named read-outs stand apart in the source and are kept apart here.

Tested on: Pomacea canaliculata
Assay: Immersion test of dilutions in beakers, mortality rate of Pomacea canaliculata
Format: in vivo
Conditions: for mortality at 0.0039 µg/mL / mortality at 0.0078 µg/mL / mortality at 0.0156 µg/mL / mortality at 0.0312 µg/mL / mortality at 0.0625 µg/mL / mortality at 0.125 µg/mL / mortality at 0.25 µg/mL / mortality at 0.5 µg/mL: Pomacea canaliculata, read-out: Mortality rate (%) of Pomacea canaliculata at different action time (h); for mortality at 0.0039 µg/mL: 0.0039 mg/L; for mortality at 0.0078 µg/mL: 0.0078 mg/L; for mortality at 0.0156 µg/mL: 0.0156 mg/L; for mortality at 0.0312 µg/mL: 0.0312 mg/L; for mortality at 0.125 µg/mL: 0.125 mg/L; for mortality at 0.25 µg/mL: 0.25 mg/L; for mortality at 0.5 µg/mL: 0.5 mg/L
Procedure: 0.5 mg of 4-nitro-3-(trifluoromethyl)phenol and 0.5 mg of niclosamide were completely dissolved in 1 mL of a dimethyl sulfoxide (DMSO) solution separately, and diluted to 1,000 mL with deaminized water to obtain a 4-nitro-3-(trifluoromethyl)phenol solution with a concentration of 0.5 mg/L and a niclosamide solution with a concentration of 0.5 mg/L.
The two solutions were separately diluted into 7 concentrations of dilutions using a doubling dilution method, including 0.25 mg/L, 0.125 mg/L, 0.0625 mg/L, 0.0312 mg/L, 0.0156 mg/L, and 0.0078 mg/L, and 0.0039 mg/L.
400 mL of the dilutions with different concentrations were separately poured into a 500 mL beaker, 10 Pomacea canaliculata samples were put into the dilution of each concentration, and each bottle mouth was sealed with wire mesh to completely immerse the Pomacea canaliculata in the dilution; clear water was used as a control group.
The experimental data were used to calculate the mortality rate of each treatment according to the following formula. Each calculation result was rounded to two decimal places. A formula for calculating the mortality rate was: […]
In the formula: P represented the mortality rate, in percentage (%); Σ^Ki represented • the number of dead Pomacea canaliculata, in snails; Σ^Ni represented the total number of treated Pomacea canaliculata, in snails.

O=[N+]([O-])c1ccc(O)cc1C(F)(F)F [4-nitro-3-(trifluoromethyl)phenol]
killing of Pomacea canaliculata (in words) (0.0625 mg/L, action time of 24 h): could kill all Pomacea canaliculata
mortality at 0.0039 µg/mL (action time 0 h): 0%
mortality at 0.0039 µg/mL (action time 12 h): 0%
mortality at 0.0039 µg/mL (action time 24 h): 20%
mortality at 0.0039 µg/mL (action time 36 h): 50%
mortality at 0.0039 µg/mL (action time 48 h): 50%
mortality at 0.0039 µg/mL (action time 60 h): 50%
mortality at 0.0039 µg/mL (action time 72 h): 70%
mortality at 0.0078 µg/mL (action time 0 h): 0%
mortality at 0.0078 µg/mL (action time 12 h): 0%
mortality at 0.0078 µg/mL (action time 24 h): 40%
mortality at 0.0078 µg/mL (action time 36 h): 100%
mortality at 0.0078 µg/mL (action time 48 h): 100%
mortality at 0.0078 µg/mL (action time 60 h): 100%
mortality at 0.0078 µg/mL (action time 72 h): 100%
mortality at 0.0156 µg/mL (action time 0 h): 0%
mortality at 0.0156 µg/mL (action time 12 h): 10%
mortality at 0.0156 µg/mL (action time 24 h): 100%
mortality at 0.0156 µg/mL (action time 36 h): 100%
mortality at 0.0156 µg/mL (action time 48 h): 100%
mortality at 0.0156 µg/mL (action time 60 h): 100%
mortality at 0.0156 µg/mL (action time 72 h): 100%
mortality at 0.0312 µg/mL (action time 0 h): 0%
mortality at 0.0312 µg/mL (action time 12 h): 30%
mortality at 0.0312 µg/mL (action time 24 h): 100%
mortality at 0.0312 µg/mL (action time 36 h): 100%
mortality at 0.0312 µg/mL (action time 48 h): 100%
mortality at 0.0312 µg/mL (action time 60 h): 100%
mortality at 0.0312 µg/mL (action time 72 h): 100%
mortality at 0.0625 µg/mL (0.0625 mg/L, action time 0 h): 0%
mortality at 0.0625 µg/mL (0.0625 mg/L, action time 12 h): 70%
mortality at 0.0625 µg/mL (0.0625 mg/L, action time 24 h): 100%
mortality at 0.0625 µg/mL (0.0625 mg/L, action time 36 h): 100%
mortality at 0.0625 µg/mL (0.0625 mg/L, action time 48 h): 100%
mortality at 0.0625 µg/mL (0.0625 mg/L, action time 60 h): 100%
mortality at 0.0625 µg/mL (0.0625 mg/L, action time 72 h): 100%
mortality at 0.125 µg/mL (action time 0 h): 0%
mortality at 0.125 µg/mL (action time 12 h): 100%
mortality at 0.125 µg/mL (action time 24 h): 100%
mortality at 0.125 µg/mL (action time 36 h): 100%
mortality at 0.125 µg/mL (action time 48 h): 100%
mortality at 0.125 µg/mL (action time 60 h): 100%
mortality at 0.125 µg/mL (action time 72 h): 100%
mortality at 0.25 µg/mL (action time 0 h): 0%
mortality at 0.25 µg/mL (action time 12 h): 100%
mortality at 0.25 µg/mL (action time 24 h): 100%
mortality at 0.25 µg/mL (action time 36 h): 100%
mortality at 0.25 µg/mL (action time 48 h): 100%
mortality at 0.25 µg/mL (action time 60 h): 100%
mortality at 0.25 µg/mL (action time 72 h): 100%
mortality at 0.5 µg/mL (action time 0 h): 0%
mortality at 0.5 µg/mL (action time 12 h): 100%
mortality at 0.5 µg/mL (action time 24 h): 100%
mortality at 0.5 µg/mL (action time 36 h): 100%
mortality at 0.5 µg/mL (action time 48 h): 100%
mortality at 0.5 µg/mL (action time 60 h): 100%
mortality at 0.5 µg/mL (action time 72 h): 100%
Pomacea canaliculata killing activity / control effect compared with niclosamide (overall conclusion from Tables 2 and 3): comparable to that of the niclosamide
killing effect on the Pomacea canaliculata (in words) (overall conclusion from the examples): obvious killing effect
